Assay [1] deals with uptake of 3H-NA (noradrenaline) in brain slices. Nature of the assay: Inhibition of the uptake of 3H-noradrenaline in mouse midbrain slices, compound added in vitro. Type of assay: cell-based, mice. The following applies: 5 min, read-out: Inhibition (50 %) of uptake in vitro NA. Here is the method:
(§1) 1. Inhibition of the uptake of carbon-14 5-HT and tritiated noradrenaline in vitro and in vivo
(§2) The method is described by Ross, Renyi and Ogren in European Journal of Pharmacology 17 (1972), 107-112. Tricyclic antidepressant drugs of type imipramine added in vitro or given in vivo to mice decrease the uptake of ^14 C-5-HT and ^3 H-NA in vitro. In the in vitro experiments different concentrations of the test compound were added to the incubation medium. In the in vivo experiments different doses of the test drug were administered intraperitoneally half an hour before the animals were killed. The incubation performance was the same in the two types of experiments, i.e. the midbrain was taken out and sliced and incubated in a mixture consisting of, per 100 mg of brain slices, 0.2 n-mole of ^14 C-5-HT, 0.2 n-mole of ^3 H-NA and 11 μmole of glucose in 2 ml of Krebs-Henseleit buffer, pH 7.4. The incubation time was 5 minutes. The radioactive amines taken up in the slices were dissolved in Soluene-350® (Packard) and the amounts were determined with the double labelling technique by liquid scintillation. The concentration or dose producing 50 percent decrease of the active uptake (ED50) was determined graphically from dose-response curves. Active uptake is defined as that part of the radioactive uptake which is inhibited by a high concentration of cocaine. […]

Assay [2] has as its system 5-HTP induced behavioural syndrome in mice. The assay is described as follows: 5-HTP response potentiation test. The format is in vivo. The following applies: Mus musculus, least dose producing maximal score (+3) in all animals, before dl-5-HTP 90 mg/kg i.v. Here is the method:
1. 5-HTP response potentiation test
Inhibition of the uptake of 5-HT potentiates the effects of administered 5-hydroxytryptophan (5-HTP) probably by increasing the amount of 5-HT at the receptor. Three mice are given the test drugs 1 hour (or 4, 24 hours) before d1-5-HTP 90 mg/kg i.v. 5-HTP alone gives only a weak behavioural syndrome but in pretreated mice there is seen a characteristic behavioural syndrome, which comes within 5 minutes: tremor, lordosis, abduction of the hindlegs, head-twiches. The strength of the syndrome is scored from 0 to +3. Each group consists of 3 animals and at least 4 groups were tested at 25 mg/kg i.p. Control groups receiving imipramine (Tofranil®) are used as reference, since imipramine constantly potentiated d1-5-HTP. The least dose of the test compound producing maximal score (+3) in all animals is estimated from a logarithmic dose-response curve, and is denoted "effective dose" in the following Table.

Assay [3] concerns uptake of 14C-5-HT (5-hydroxytryptamine) in brain slices. The assay is described as follows: Inhibition of the uptake of 14C-5-HT in midbrain slices after in vivo i.p. administration to mice. To be noted: Mus musculus, ip, 0.5 h; dose producing 50 percent decrease of active uptake (ED50); i.p. half an hour before killing; 5-HT 1×10^-7 M. Here is the method:
as §1
(§3) The method is described by Ross, Renyi and Ogren in European Journal of Pharmacology 17 (1972), 107-112. […] In the in vitro experiments different concentrations of the test compound were added to the incubation medium. In the in vivo experiments different doses of the test drug were administered intraperitoneally half an hour before the animals were killed. The incubation performance was the same in the two types of experiments, i.e. the midbrain was taken out and sliced and incubated in a mixture consisting of, per 100 mg of brain slices, 0.2 n-mole of ^14 C-5-HT, 0.2 n-mole of ^3 H-NA and 11 μmole of glucose in 2 ml of Krebs-Henseleit buffer, pH 7.4. The incubation time was 5 minutes. The radioactive amines taken up in the slices were dissolved in Soluene-350® (Packard) and the amounts were determined with the double labelling technique by liquid scintillation. The concentration or dose producing 50 percent decrease of the active uptake (ED50) was determined graphically from dose-response curves. Active uptake is defined as that part of the radioactive uptake which is inhibited by a high concentration of cocaine. All doses were given at least to four animals.

Assay [4] has as its system uptake of 3H-NA (noradrenaline) in brain slices. Nature of the assay: Inhibition of the uptake of 3H-noradrenaline in midbrain slices after in vivo i.p. administration to mice. To be noted: Mus musculus, ip, 0.5 h; dose producing 50 percent decrease of active uptake (ED50); i.p. half an hour before killing; 1-noradrenaline 1×10^-7 M. The procedure: as §1, §3
For assay [5], the system named is uptake of 14C-5-HT (5-hydroxytryptamine) in brain slices. Nature of the assay: Inhibition of the uptake of 14C-5-HT in mouse midbrain slices, compound added in vitro. The format is cell-based, mice. To be noted: 5 min, concentration producing 50 percent decrease of active uptake (ED50), 5-HT 1×10^-7 M, 5 min incubation. The procedure:
as §1, §2

Values after ≈ are worked out from the molar mass of the structure shown. Structures can show the parent of a compound that is named as a salt. Where two headings read alike, the source gives them in different places. A value given as a limit tells only on which side of the number the result lay.

The record followed here is US4073941A, “Aralkyl amides having antidepressive activity” (priority 1975, dated 1978).

For the compound `CN(C)CCCN1c2ccccc2CCc2ccccc21` [Imipramine, imipramine], the IC50 in assay [1] (concentration producing 50 percent decrease of active uptake (ED50), 1-noradrenaline 1×10^-7 M, mouse midbrain slices, 5 min incubation) was 0.06 µg/mL (≈ 0.214 µM); in assay [5], 0.1 µg/mL (≈ 0.357 µM). Besides, the minimal effective dose (usually the smallest amount tested that counted as effective) in assay [2] was found to be 15 mg/kg. In addition, the median effective dose (ED50) (usually the midpoint of the dose-response relation) was 24 mg/kg in assay [3] and 6 mg/kg in assay [4].

With `CC(N)C(=O)NC(C)(C)Cc1ccc(Cl)cc1` (stereo not shown) [GEA 609, 2-amino-N^1 - 3-(4-chlorophenyl)-2-methyl-2-propyl! propanoic acid amide hydrochloride], the IC50 in assay [1] (Mus musculus) is above 10 µg/mL; in assay [5], 0.7 µg/mL. In addition, the minimal effective dose in assay [2] turned out to be 0.5 mg/kg. Besides, the ED50 is 20 mg/kg in assay [3] and above 40 mg/kg in assay [4].
